Results on five compounds are retold here after ChEMBL document CHEMBL1145593, “Design, synthesis and evaluation of potent thymidylate synthase X inhibitors” (Bioorg Med Chem Lett, 2008).

For assay [1], the target named is T1, Probable flavin-dependent thymidylate synthase (Paramecium bursaria Chlorella virus 1, UniProt O41156).
T1 sequence (O41156 whole entry): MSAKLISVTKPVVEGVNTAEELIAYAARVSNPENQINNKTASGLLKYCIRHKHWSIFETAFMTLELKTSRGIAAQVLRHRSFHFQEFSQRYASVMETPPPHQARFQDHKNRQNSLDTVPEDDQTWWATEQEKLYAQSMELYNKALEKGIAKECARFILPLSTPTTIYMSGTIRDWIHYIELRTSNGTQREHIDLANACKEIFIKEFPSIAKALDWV
As to the kind of experiment: Inhibition of PBCV1 Thymidylate synthase X.

Assay [2] has as its target T2, Probable flavin-dependent thymidylate synthase (Paramecium bursaria Chlorella virus 1) (UniProt O41156).
T2 sequence (whole entry): T1 sequence (O41156 whole entry)
As to the kind of experiment: Inhibition of PBCV1 Thymidylate synthase X in presence of triton X100 surfactant.

Assay [3] deals with T2, Probable flavin-dependent thymidylate synthase (Paramecium bursaria Chlorella virus 1). In words: Inhibition of PBCV1 Thymidylate synthase X in presence of bovine serum albumin surfactant.
Assay [4] has the same target. In words: Reversal of inhibition of PBCV1 Thy X at 20 uM in presence of dUMP.

Calls of active or inactive are those of the source. The rule behind the calls is not given here.

`CCCCCCC(=O)N(CC(=O)O)C[C@@H]1CSC(c2ccccc2)N1C(=O)c1ccccc1` (stereo partly drawn) gave an IC50 in assay [1] of 130 nM. The compound also showed an inhibition constant Ki in assay [1] of 130 nM. Besides, the result in assay [2], in assay [3] and in assay [4] was Active.
In assay [1], `CCOC(=O)[C@@H]1CSC(c2ccccc2)N1C(=O)c1cn(CCCNC(=O)C(F)(F)F)nn1` (stereo partly drawn) gave an IC50 of 57 nM and a Ki of 57 nM. In addition, the outcome in assay [2] was Active. The outcome in assay [3] was Active. Also, in assay [4], the result was inactive.
The compound `CCOC(=O)[C@@H]1CSC(c2ccccc2)N1C(=O)c1cn(CCc2ccsc2)nn1` (stereo partly drawn) came in with a Ki in assay [1] of 1000 nM.
On the same count and under the same terms, with `CCOC(=O)[C@@H]1CSC(c2ccccc2)N1C(=O)c1cn(CCc2ccc(F)cc2)nn1` (stereo partly drawn) the figure was 2000 nM.
In turn, `CCOC(=O)[C@@H]1CSC(c2ccccc2)N1C(=O)c1cn(CCCCCCCO)nn1` (stereo partly drawn) yielded a Ki in assay [1] of 3500 nM.

As a reminder, the IC50 is the midpoint of a concentration-inhibition curve. The term Ki denotes the dissociation constant of the complex between target and ligand, obtained from inhibition or displacement. A lower Ki goes with a stronger hold on the target.
